Experimental data as given in patent publication US8865967B2 (priority 2010, dated 2014).

Tested on: Colletotrichum graminicola (CGR; isolate Carroll-IA-99)
Assay type: cell-based
Conditions: in words, variant after one round of DNA shuffling

Substance: Pp-PDF1-1C-7A4: Pp-PDF1 variant from first shuffling round (RVCEKPSKFFKGLCGSDRDCTNACRKEGLATGECQSKGFFNSVCVCKKPC; Synthetic sequence obtained from DNA shuffling of a plant sequence.)
- in vitro inhibitory activity against Colletotrichum graminicola: significantly improved
